Drawing on patent US20100184813A1, “CHEMICAL COMPOUNDS 553” (AstraZeneca AB, priority 2008, published 2010), this text covers IC50 for eight compounds.

The target of this test is T1, human DGAT1 (Homo sapiens, UniProt O75907).
T1 construct: made in house; host or cells: Sf9 insect cells (baculovirus); membrane fraction
T1 sequence (O75907 1-488): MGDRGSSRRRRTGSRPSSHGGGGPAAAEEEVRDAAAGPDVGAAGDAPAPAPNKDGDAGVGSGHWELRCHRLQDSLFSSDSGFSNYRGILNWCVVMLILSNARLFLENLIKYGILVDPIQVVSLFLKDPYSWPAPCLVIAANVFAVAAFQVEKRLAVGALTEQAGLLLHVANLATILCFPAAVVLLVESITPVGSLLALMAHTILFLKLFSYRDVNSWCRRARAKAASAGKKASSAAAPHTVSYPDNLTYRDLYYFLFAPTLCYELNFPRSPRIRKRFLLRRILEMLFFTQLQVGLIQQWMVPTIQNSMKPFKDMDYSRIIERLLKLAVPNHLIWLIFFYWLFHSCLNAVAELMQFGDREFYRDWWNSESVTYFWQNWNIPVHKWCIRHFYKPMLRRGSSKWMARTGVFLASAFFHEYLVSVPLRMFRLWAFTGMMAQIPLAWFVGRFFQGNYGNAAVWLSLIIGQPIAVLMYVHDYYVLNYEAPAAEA
The experiment in a line: Human Enzyme Assay (DGAT1 inhibition, 14C oleoyl coenzyme A, insect cell membranes). The format is biochemical. The following applies: human DGAT1 expressed in sf9 insect cell membranes; usually a mean of 2 measurements. As for the experimental part: See, for example, International Application WO 2005/044250.
The in vitro assay to identify DGAT1 inhibitors uses human DGAT1 expressed in insect cell membranes as the enzyme source (Proc. Natl. Acad. Sci. 1998, 95, 13018-13023). Briefly, sf9 cells were infected with recombinant baculovirus containing human DGAT1 coding sequences and harvested after 48 h. Cells were lysed by sonication and membranes isolated by centrifuging at 28000 rpm for 1 h at 4° C. on a 41% sucrose gradient. The membrane fraction at the interphase was collected, washed, and stored in liquid nitrogen.
DGAT1 activity was assayed by a modification of the method described by Coleman (Methods in Enzymology 1992, 209, 98-102). Compound at 0.0000256 μM-33 μM (final conc.) (typically 10 μM) was incubated with 4 μg/ml (final conc) membrane protein, 5 mM MgCl2, and 100 μM 1,2 dioleoyl-sn-glycerol (dissolved in acetone with a final assay conc. of acetone of 10%) in a total assay volume of 200 μl in a 96 well plate. The reaction was started by adding ^14C oleoyl coenzyme A (30 μM final concentration) and incubated at room temperature for 30 minutes. The reaction was stopped by adding 200 μl 2-propanol:heptane 7:1. Radioactive triolein product was separated into the organic phase by adding 300 μl heptane and 100 μl 0.1 M carbonate buffer pH 9.5. DGAT1 activity was quantified by counting aliquots of the upper heptane layer by liquid scintillography.
Stated figures are usually a mean of a number of measurements (usually 2 measurements) according to standard practice.

As usually defined, the IC50 is the concentration that inhibits the measured activity by half. Higher therefore signals weaker potency in that assay. Consider `O=C(Nc1ccc([C@H]2CC[C@@H](C(=O)O)CC2)cc1F)c1nnc(Nc2cc(F)c(F)cc2F)o1` [Example 8, (1s,4s)-4-(3-Fluoro-4-(5-(2,4,5-trifluorophenylamino)-1,3,4-oxadiazole-2-carboxamido)phenyl)cyclohexanecarboxylic acid], for which half-maximal inhibition (IC50) was put at 4.7 nM.
As to `O=C(Nc1ccc([C@H]2CC[C@@H](C(=O)O)CC2)cc1F)c1nnc(Nc2ccc(F)c(F)c2)o1` [Example 7, (1s,4s)-4-(4-(5-(3,4-Difluorophenylamino)-1,3,4-oxadiazole-2-carboxamido)-3-fluorophenyl)cyclohexanecarboxylic acid], the IC50 came to 9.2 nM.
For `O=C(Nc1ccc([C@H]2CC[C@H](C(=O)O)CC2)cc1F)c1nnc(Nc2ccc(C(F)(F)F)cc2)o1` [Example 1, (1r,4r)-4-(3-Fluoro-4-(5-(4-(trifluoromethyl)phenylamino)-1,3,4-oxadiazole-2-carboxamido)phenyl)cyclohexanecarboxylic acid] the value was 16 nM.
In the case of `O=C(Nc1ccc([C@H]2CC[C@H](C(=O)O)CC2)cc1F)c1nnc(Nc2cc(F)c(F)cc2F)o1` [Example 6, (1r,4r)-4-(3-Fluoro-4-(5-(2,4,5-trifluorophenylamino)-1,3,4-oxadiazole-2-carboxamido)phenyl)cyclohexanecarboxylic acid], the midpoint of inhibition, the IC50, lay at 3.7 nM.
For `O=C(Nc1ccc([C@H]2CC[C@H](C(=O)O)CC2)cc1F)c1nnc(Nc2ccc(OC(F)F)cc2)o1` [Example 2] the value was 28 nM; for `O=C(Nc1ccc([C@H]2CC[C@H](C(=O)O)CC2)cc1F)c1nnc(Nc2ccc(OC(F)(F)F)cc2)o1` [Example 3, (1r,4r)-4-(3-Fluoro-4-(5-(4-(trifluoromethoxyl)phenylamino)-1,3,4-oxadiazole-2-carboxamido)phenyl)cyclohexanecarboxylic acid], 11 nM.
`O=C(Nc1ccc([C@H]2CC[C@H](C(=O)O)CC2)cc1F)c1nnc(Nc2cccc(Cl)c2)o1` [Example 4, (1r,4r)-4-(4-(5-(3-Chlorophenylamino)-1,3,4-oxadiazole-2-carboxamido)-3-fluorophenyl)cyclohexanecarboxylic acid] had an IC50 of 12 nM.
For `O=C(Nc1ccc([C@H]2CC[C@H](C(=O)O)CC2)cc1F)c1nnc(Nc2ccc(F)c(F)c2)o1` [Example 5, (1r,4r)-4-(4-(5-(3,4-Difluorophenylamino)-1,3,4-oxadiazole-2-carboxamido)-3-fluorophenyl)cyclohexanecarboxylic acid] the value was 5.5 nM.
